Source: US20250049776A1, “AUTOPHAGY INDUCING COMPOUNDS AND USES THEREOF, IN PARTICULAR FOR A SYSTEMIC TREATMENT OF DISEASES AND CONDITIONS” (Samsara Therapeutics Inc., priority 2021, published 2025)
Counter-ions that a name gives are not always drawn.

Tests used:
[1] = test system: U2OS cell line stabling expressing RFP-eGFP-hLC3b; assay: Tandem reporter assay (autophagic flux, RFP-only puncta); type: cell-based; details: Homo sapiens, RFP-only puncta as percentage of DMSO-treated control, 24 hours; for activity at 1 µM: read-out: Autolysosome % DMSO activity (compound concentration of 1 μM); for activity at 10 µM: read-out: Autolysosome % DMSO activity (compound concentration of 10 μM)
Experimental: Selected compounds of this invention were also assessed for their ability to stimulate autophagy using a U20S cell line stabling expressing RFP-eGFP-hLC3b (a tandem reporter cell line). During the process of autophagy, the cargo to be degraded is first enveloped by organelles called autophagosomes. These autophagosomes then fuse with lysosomes, causing them to become acidified and their digestive enzymes to become activated. The term “autophagic flux” is used to represent the dynamic process of autophagy: autophagic flux refers to the whole process of autophagy, including autophagosome formation, maturation, fusion with lysosomes, subsequent breakdown and the release of macromolecules back into the cytosol (Zhang X J, Chen S, Huang K X, Le W D. Why should autophagic flux be assessed? Acta Pharmacol Sin. 2013 May; 34(5): 595-9. doi: 10.1038/aps.2012.184. Epub 2013 Mar. 11). Compounds that stimulate autophagic flux stimulate the dynamic process of autophagy (the whole process of autophagy).
LC3b is a protein found in the membrane of autophagosomes which has been used to generate genetic reporters of autophagy in cells. In these systems a tandem fusion of LC3b is engineered with two fluorescent proteins of different wavelengths: one which is acid sensitive (for example eGFP, which fluoresces green) and the other which is acid insensitive (for example RFP, which fluoresces red). Cells expressing RFP-eGFP-hLC3b can be examined using fluorescent microscopy: the autophagosomes present will fluoresce in both channels (either yellow in an overlay of both channels or puncta that are present in both the individual red and green channels) but the autolysosomes present will fluoresce in the RFP (red) channel only. Using a fluorescent microscope, the number of autophagosomes and autolysosomes can be counted, allowing for the monitoring of both the induction of autophagy (total puncta count) and the rate of autophagic flux (ratio of red-only to red-and-green puncta). The influence of small molecules on autophagy induction and flux can be assessed using this system by comparison to a non-treated control.
Representative Procedure: Human osteosarcoma U2OS cells stably expressing RFP-eGFP-hLC3b were seeded (10,000 cells/well) into a 96-well glass-bottom plate (Cell Carrier Ultra, Perkin Elmer) in DMEM Glutamax media (Gibco) supplemented with 10% Fetal Bovine Serum (FBS) and antibiotics (100 u/ml penicillin, 100 μg/ml streptomycin, Invitrogen), then incubated overnight in a humified atmosphere at 37° C. and 5% CO2. The cells were then treated with the compounds of interest, dissolved in DMSO, in a duplicated 5- or 10-point dose-response. 8 wells were treated with an equivalent volume of DMSO, 4 with 0.3 μM torin-1 as a positive control (MCE) and 4 wells with 0.4 μM torin-1 plus 0.2 μM bafilomycin (MCE) as a control for flux inhibition. The cells were returned to the incubator and the treatment continued for 24 hours. After treatment, the media was aspirated off and the cells fixed with a solution of 4% formaldehyde+1% glutaraldehyde (Sigma) in dPBS (plus magnesium and calcium, Gibco).
Fixation was allowed to proceed for 15 minutes at room temperature then the fixative solution discarded and replaced with PBS (Gibco) plus Hoescht 33342 ([…], Sigma). After 30 minutes the plates were imaged on an Opera Phenix confocal microscope (Perkin-Elmer) using a 40× water objective, collecting using DAPI, mCherry and GFP channels. Cells were detected based upon the staining of their nuclei with DAPI using the Harmony image analysis software (Perkin-Elmer) and the number of autophagosomes (GFP and RFP puncta) and autolysosomes (RFP only puncta) per cell were counted using the spot picking function within the software.

[2] = test system: Human osteosarcoma U20S cells; assay: Assay to measure lysosome and autolysosome formation (acidic vesicle formation, LysoView/LysoTracker staining); type: cell-based; details: Homo sapiens; U2OS cells, concentration of 0.8 μM; read-out: Activity (percentage increase in acidic vesicle formation over the DMSO-treated control), Table 2
Method in brief: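 U2OS cells treated with compounds in DMSO for 24 h, then stained 45 min at 37 °C with 1× LysoView 633 or 50 nM LysoTracker Deep Red, with Hoechst nuclear counterstain. Live-cell fluorescence imaging at 37 °C; acidic vesicle formation judged against DMSO-treated control.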

Row | Structure (SMILES) | activity at 1 µM [1] [%] | activity at 10 µM [1] [%] | activation at 0.8 µM [2] [%]
1 | CC(C)N(C(=O)c1csc(-c2cnn(C(C)C)c2)n1)[C@H]1CCNC1 [Compound 390, N-(propan-2-yl)-2-[1-(propan-2-yl)-1H-pyrazol-4-yl]-N-[(3S)-pyrrolidin-3-yl]-1,3-thiazole-4-carboxamide] | 106 | 116 | 
2 | CC(C)N(C(=O)c1nc(-c2cnn(-c3ccccc3)c2)c[nH]1)[C@@H]1CCNC1 [Compound 345, 5-(1-phenyl-1H-pyrazol-4-yl)-N-(propan-2-yl)-N-[(3R)-pyrrolidin-3-yl]-1H-imidazole-2-carboxamide] | 116 | 72 | 
3 | CCN(C(=O)c1csc(-c2cnn(-c3ccccn3)c2)n1)[C@H]1CCNC1 [Compound 367, N-ethyl-2-[1-(pyridin-2-yl)-1H-pyrazol-4-yl]-N-[(3S)-pyrrolidin-3-yl]-1,3-thiazole-4-carboxamide] | 114 | 215 | 
4 | O=C(c1csc(-c2cnn(-c3ccccc3OC(F)(F)F)c2)n1)N1C[C@H]2C[C@@H]1CN2 [Compound 376, (1R,4R)-2-(2-{1-[2-(trifluoromethoxy)phenyl]-1H-pyrazol-4-yl}-1,3-thiazole-4-carbonyl)-2,5-diazabicyclo[2.2.1]heptane] | 176 | 260 | 
5 | CN(C(=O)c1csc(-c2cnn(-c3ccccc3)n2)n1)[C@@H]1CCNC1 [Compound 363, N-methyl-2-(2-phenyl-2H-1,2,3-triazol-4-yl)-N-[(3R)-pyrrolidin-3-yl]-1,3-thiazole-4-carboxamide] | 171 |  | 
6 | CC(C)N(C(=O)c1csc(-c2cnn(C(C)C)c2)n1)C1CCNCC1 [Compound 393, N-(piperidin-4-yl)-N-(propan-2-yl)-2-[1-(propan-2-yl)-1H-pyrazol-4-yl]-1,3-thiazole-4-carboxamide] | 106 | 110 | 
7 | CCN(C(=O)c1csc(-c2cnn(-c3ccccc3)n2)n1)[C@H]1CCNC1 [Compound 364, N-ethyl-2-(2-phenyl-2H-1,2,3-triazol-4-yl)-N-[(3S)-pyrrolidin-3-yl]-1,3-thiazole-4-carboxamide] | 166 |  | 
8 | CC(C)N(C(=O)c1csc(-c2cnn(-c3ccccc3)c2)n1)C1CCNCC1F (stereo not shown) [Compound 383, N-(3-fluoropiperidin-4-yl)-2-(1-phenyl-1H-pyrazol-4-yl)-N-(propan-2-yl)-1,3-thiazole-4-carboxamide] | 98 | 194 | 
9 | CC(C)N(C(=O)c1csc(-c2cnn(-c3ccccc3Cl)c2)n1)[C@H]1CCNC1 [Compound 395, 2-[1-(2-chlorophenyl)-1H-pyrazol-4-yl]-N-(propan-2-yl)-N-[(3S)-pyrrolidin-3-yl]-1,3-thiazole-4-carboxamide] | 137 | 191 | 
10 | CN(C(=O)c1coc(-c2cnn(-c3ccccc3)c2)n1)[C@H]1CCNC1 [Compound 360, N-methyl-2-(1-phenyl-1H-pyrazol-4-yl)-N-[(3S)-pyrrolidin-3-yl]-1,3-oxazole-4-carboxamide] | 113 | 214 | 
11 | CN(C(=O)c1nc(-c2cnn(-c3ccccc3)c2)c[nH]1)[C@H]1CCNC1 [Compound 359, N-methyl-5-(1-phenyl-1H-pyrazol-4-yl)-N-[(3S)-pyrrolidin-3-yl]-1H-imidazole-2-carboxamide] | 113 | 144 | 
12 | CN(C(=O)c1cnc(-c2cnn(-c3ccccc3)c2)[nH]1)[C@H]1CCNC1 [Compound 358, N-methyl-2-(1-phenyl-1H-pyrazol-4-yl)-N-[(3S)-pyrrolidin-3-yl]-1H-imidazole-4-carboxamide] | 102 | 103 | 
13 | CC(C)N(C(=O)c1csc(-c2cnn(C(C)(C)C)c2)n1)[C@H]1CCNC1 [Compound 391, 2-(1-tert-butyl-1H-pyrazol-4-yl)-N-(propan-2-yl)-N-[(3S)-pyrrolidin-3-yl]-1,3-thiazole-4-carboxamide] | 109 | 161 | 
14 | CC(C)N(C(=O)c1csc(-c2cnn(C)c2)n1)C1CCNCC1 [Compound 392, 2-(1-methyl-1H-pyrazol-4-yl)-N-(piperidin-4-yl)-N-(propan-2-yl)-1,3-thiazole-4-carboxamide] | 97 | 109 | 
15 | CC(C)N(C(=O)c1csc(-c2cnn(C(C)(C)C)c2)n1)C1CCNCC1 [Compound 394, 2-(1-tert-butyl-1H-pyrazol-4-yl)-N-(piperidin-4-yl)-N-(propan-2-yl)-1,3-thiazole-4-carboxamide] | 114 | 176 | 
16 | CCN(C(=O)c1csc(-c2cnn(-c3ccccc3)n2)n1)[C@@H]1CCNC1 [Compound 365, N-ethyl-2-(2-phenyl-2H-1,2,3-triazol-4-yl)-N-[(3R)-pyrrolidin-3-yl]-1,3-thiazole-4-carboxamide] | 183 |  | 
17 | COc1ccccc1-n1cc(-c2nc(C(=O)N(C(C)C)[C@H]3CCNC3)cs2)cn1 [Compound 398, 2-[1-(2-methoxyphenyl)-1H-pyrazol-4-yl]-N-(propan-2-yl)-N-[(3S)-pyrrolidin-3-yl]-1,3-thiazole-4-carboxamide] | 116 | 190 | 
18 | CC(C)N(C(=O)c1csc(-c2cnn(-c3ccccc3OC(F)(F)F)c2)n1)[C@H]1CCNC1 [Compound 396, N-(propan-2-yl)-N-[(3S)-pyrrolidin-3-yl]-2-{1-[2-(trifluoromethoxy)phenyl]-1H-pyrazol-4-yl}-1,3-thiazole-4-carboxamide] | 138 | 78 | 
19 | CC(C)N(C(=O)c1csc(-c2cnn(C)c2)n1)[C@H]1CCNC1 [Compound 389, 2-(1-methyl-1H-pyrazol-4-yl)-N-(propan-2-yl)-N-[(3S)-pyrrolidin-3-yl]-1,3-thiazole-4-carboxamide] | 101 | 108 | 
20 | CCCN(C(=O)c1csc(-c2cnn(-c3cccc(OC)c3)c2)n1)[C@H]1CCNC1 [Compound 51, 2-[1-(3-methoxyphenyl)-1H-pyrazol-4-yl]-N-propyl-N-[(3S)-pyrrolidin-3-yl]-1,3-thiazole-4-carboxamide] |  |  | 30 to 50
21 | NCCNC(=O)c1csc(-c2cnn(-c3ccccc3)c2)n1 [Compound 162, N-(2-aminoethyl)-2-(1-phenyl-1H-pyrazol-4-yl)-1,3-thiazole-4-carboxamide] |  |  | 10 to 30
22 | CCCN(C(=O)c1csc(-c2cnn(-c3ccccc3)c2)n1)[C@H]1CCNC1 [Compound 170, (S)-2-(1-phenyl-1H-pyrazol-4-yl)-N-propyl-N-(pyrrolidin-3-yl)thiazole-4-carboxamide hydrochloride] |  |  | 10 to 30
23 | CCCN(C(=O)c1csc(-c2cnn(-c3ccccc3)c2)c1)C1CCNC1 (stereo not shown) [Compound 130, 5-(1-phenyl-1H-pyrazol-4-yl)-N-propyl-N-(pyrrolidin-3-yl)thiophene-3-carboxamide] |  |  | 10 to 30
24 | CCCN(C(=O)c1csc(-c2cnn(-c3ccccc3Cl)c2)n1)[C@@H]1CCNC1 [Compound 90, 2-[1-(2-chlorophenyl)-1H-pyrazol-4-yl]-N-propyl-N-[(3R)-pyrrolidin-3-yl]-1,3-thiazole-4-carboxamide] |  |  | 10 to 30
